# Laboratory results taken from US8022178B2, “Modified self-assembling peptides” (Massachusetts Institute of Technology, priority 2006, dated 2011).
# Entries after “also recorded” stand apart in the source; their conditions may differ.
# Columns and labels:
# [1] = system: Mouse preosteoblast cell line (MC3T3-E1); assay: Osteocalcin secreted in culture medium (EIA); assay type: cell-based; conditions: FIG. 17 compared to FIG. 6; versus PRGmx or PRFmx
# Method: Mouse preosteoblast cell line (MC3T3-E1) was used to compare the proliferation and differentiation effects of the motifs with RAD16-1 and Collagen-I hydrogels as controls. The proliferation was measured by DNA contents and the differentiation effects were evaluated using Alkaline phosphatase (ALP) activity and secreted Osteocalcin. Alkaline phosphatase is known to be differentiation marker of osteoblast in earlier stage. Secreted Osteocalcin is known to be differentiation marker of osteoblast in later stage and its activity is correlated with the bone mineralization.
# 1% RAD16-I solution [self-assembling peptide solution] was obtained as RAD16-I (Puramatrix™, 3DM Inc./BD Bioscience). The functionalized peptides of Table 2 were dissolved in water at final concentration of 1% (v/w). The functionalized peptide solutions were then mixed with 1% RAD16-I solution at a ratio of 1:1 (Table 4). Each peptide solution was loaded in the Culture plate inserts (10 mm diameter, Millicell-CM, Millipore). […]
# Cell proliferation was evaluated using DNA contents in the hydrogel using PicoGreen dsDNA Kits (Molecular Probes). ALP activity was quantitatively measured from cell lysis using Alkaline Phosphatase Fluorescence Assay Kit (Sigma). Osteocalcin was measured from cell culture medium using Mouse Osteocalcin EIA Kit (Biomedical Technologies Inc.).
# [2] = system: chick Chorioallantoic Membrane; assay: Chorioallantoic Membrane (CAM) assay of angiogenesis; assay type: in vivo, chicken; conditions: hydrogel placed Day 8, histology Day 12, FIG. 30
# Method: In vivo study of angiogenesis was performed using Chorioallantoic Membrane (CAM) assay. At Day 8 of fertilized chicken egg incubation, hydrogels of 10 mm diameter with 1 mm thickness were transferred to chick Chorioallantoic Membrane. The hydrogels were selected from Table 19 and gels were formed before the transfer. On Day 12, CAMs were collected for histology. The angiogenesis inside and below the hydrogel were evaluated by histological cross section.
# [3] = system: HUVEC (human umbilical vein endothelial cells); assay: HUVEC culture on bFGF loaded peptide matrix; assay type: cell-based; conditions: Day 3; bFGF loaded matrix compared to negative and positive control; FIG. 21; listed as RAD-2P
# Method: The effect of protein retention and delivery using the self-assembling peptide were studied (Table 11). bFGF was used as a model protein. The retention of bFGF in different peptide matrix in different charge condition was measured by ELISA after washing by PBS. After washing out unbound bFGF, the effect of protein retention to self-assembling peptide matrix were evaluated the using cell culturing of HUVEC (human umbilical vein endothelial cells).
# The peptide solutions provided in Table 12 were loaded in the culture inserts (10 mm diameter, Millicell-CM, Millipore) and gels were formed using PBS. After gelation, bFGF solution in PBS was added inside and outside and plated for overnight. bFGF was loaded at 175 ng/insert. After loading bFGF, the PBS inside and outside the inserts were exchanged three times (2 hours, 9 hours and 12 hours) to remove unbound bFGF (Washing). […]
# Cell culturing using cell culture medium (EGM-2-MV) was used without attached growth factor on peptide matrix as negative control. […] The bFGF concentration in washing buffer (PBS) and cell culture medium (EGM-2-MV) was measured using ELISA. […] Growth factor retention rate was calculated by accumulating the amount of measured bFGF. […]
# [4] = system: adipose derived stem cells (ADSC); assay: Growth factors secreted by ADSC into the culture medium (ELISA); assay type: cell-based, human; conditions: from 1 day up to 7 days of culture, control tissue culture plate, FIG. 35
# Method: The peptide solutions shown in Table 25 were loaded in the culture inserts (10 mm diameter, Millicell-CM, Millipore) and gels were formed using cell culture medium (DMEM-F12+10% FBS, Gibco). ADSC were plated at 4×10^4 cells on the inserts and cultured up to 7 Days.
# The growth factors secreted into the culture medium were also evaluated using ELISA method (FIGS. 35A-35B). The growth factors secreted from stem cell are considered to be main source of the cell therapy by reducing apotosis and increasing angiogenesis. Especially HGF and VEGF are considered to key components for reducing apotosis and increasing angiogenesis. The medium of ADSC cultured on tissue culture plate was used as control (shown as TCP). […] For VEGF, all peptide matrix had increase of VEGF secretion in 1 day culture medium.
Substance,effect to promote differentiation (osteocalcin) [1],angiogenesis inside and below the hydrogel [2],cell attachment and cell spread [3],HGF secreted into the culture medium [4]
Ac(RADA)4GGFHRRIKA-CONH2 (Ac-RADARADARADARADAGGFHRRIKA-NH2) [FHR = 1% solution; FHR-2P = 2% solution],not so strong,–,–,–
Ac(RADA)4-CONH2,–,no angiogenesis both inside and below the hydrogel,superior; also recorded: dominant effect,significant increase
